assay: gradient 5% acetonitrile 3 min, to 50% in 2 min, to 85% in 15 min, held 3 min, 100 µL/min; details: column: Zorbax Extend-C18 2.1 x 50 mm; eluents: water / acetonitrile, 0.1% formic acid
Outline: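 Using water and acetonitrile that each contained 0.1% formic acid, mixtures of ~100 pure standards were separated at 100 μL/min on a Zorbax Extend-C18 column (2.1 × 50 mm, 1.8 μm). The HPLC fed a quadrupole time-of-flight mass spectrometer working in positive and negative ionization mode, with dead and dwell volumes of 40 μL and 900 μL. Data were acquired over 3 months. Retention time was read from computationally picked adduct peaks after manual inspection of each.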

Structure (SMILES)	RP-LC retention time
O=c1c2cc(-c3cccs3)nn2ccn1Cc1noc(CN2CCCCCCC2)n1	688 s
CCOc1ccc(N2C(=O)C3N=NN(Cc4nc(-c5ccccc5Br)no4)C3C2=O)cc1 (stereo not drawn)	1010 s
Cc1c(-c2nnc(C3CCC3)o2)c(S(=O)(=O)Nc2cccc(Cl)c2F)c(C)n1C	1060 s
Cc1cnnn1-c1ccc(C(=O)Nc2cc(Cl)ccc2Cl)cc1	815 s
CC1CCCCN1CCCNC(=O)CN1C(=O)CCn2nc(-c3cn(C)c4ccccc34)cc21 (stereo not drawn)	564 s
CCN(C(=O)c1ccc2c(c1)OCO2)c1nc(-c2ccccc2)cs1	1200 s
Fc1ccc(-c2nnc(-c3ccc(-n4ccnc4)nc3)o2)c(F)c1	645 s
Cc1ccccc1-c1nnc(CSc2nnc(NC(=O)c3ccc(Br)o3)s2)o1	919 s
O=C(NC1CCN(c2cc(-c3ccc(Cl)cc3)[nH]n2)CC1)c1ccc2nc[nH]c2c1	634 s
COc1cccc(-c2nc3nc(C)c(CCC(=O)NC4CCCCC4)c(C)n3n2)c1	827 s
CN(CCc1noc(COc2ccc(Cl)cc2)n1)C(=O)Nc1ccc(F)cc1	934 s
COc1ccc(Cl)cc1S(=O)(=O)N1CCC(OC2CCN(C)CC2)CC1	791 s
Cc1cc(Cl)ccc1NC(=O)c1ncn2c1C(=O)N(C1CC1)C(C)(C(=O)NC1CCCC1)C2 (stereo not drawn)	879 s
CCCCN1C(=O)C(C)(C(=O)Nc2ccc(OCC)cc2)Oc2cccnc21 (stereo not drawn)	1060 s
Cn1cnc(S(=O)(=O)N2CCOc3ccc(NC(=O)C4CC4)cc3C2)c1	658 s
O=C(Cn1c(=O)cc(C(=O)N2CCCCC2)c2ccccc21)NC1CCCCC1	753 s
Cc1ccn2cc(-c3ccc(NS(=O)(=O)c4ccc(I)cc4)cc3)nc2n1	701 s
Cc1nc2nc(-c3ccc(Cl)cc3)nn2c(C)c1CC(=O)NC(C)C	790 s
O=C(Nc1cccc(OCc2nnc(-c3ccc(F)cc3)o2)c1)c1ccsc1	920 s
Cc1ccc(F)cc1S(=O)(=O)N1CCN(c2ccc(N3CCOCC3)nn2)CC1	592 s
CCCC(NC(=O)Cc1cccc(OC)c1)C(=O)Nc1nc2ccccc2[nH]1 (stereo not drawn)	700 s
Cn1c(=O)c(N2CCC(C(=O)NCCc3c[nH]c4ccc(Cl)cc34)CC2)nc2ccccc21	892 s

Structure (SMILES)	RP-LC retention time
c1ccc(-c2nc(-c3cccc(-c4ccn[nH]4)c3)no2)nc1	739 s
COCCOC(=O)C1=C(C)NC2=C(C(=O)C(C(=O)OC)C(C)C2)C1c1ccccc1F (stereo not drawn)	806 s
COCCNS(=O)(=O)c1cc(-c2nc(C)cs2)n(CC(=O)N2CCCCC2)c1	755 s
CC(=O)N1CCc2ccc(C(=O)NC3CCCCCC3)cc21	778 s
O=C(Nc1cnc(N2CCOCC2)nc1)c1cccc(Br)c1	828 s
Cc1ccc(NC(=O)C2CCCN2S(=O)(=O)c2cc3c(cc2C)NC(=O)C(C)O3)cc1C (stereo not drawn)	842 s
CCOC(=O)N1CCN(C(=O)CN2C(=O)c3ccccc3S2(=O)=O)CC1	643 s
CCOc1ccc(-c2ccc(=O)n(Cc3nc(-c4ccccc4)no3)n2)cc1	1040 s
CCn1c(=O)c(=O)n(CC(=O)NCc2ccco2)c2cccnc21	652 s
COc1ccc(C2(CNC(=O)C(=O)Nc3ccccc3Cl)CCCC2)cc1	1300 s
COc1ccccc1-c1noc(Cn2c(=O)n(-c3cccc(F)c3)c(=O)c3sccc32)n1	880 s
CC(C)(O)[C@@H]1[C@@H]2OC(=O)[C@H]1[C@]1(O)C[C@H]3O[C@]34C(=O)O[C@H]2[C@]14C	709 s
CC1CCCN(c2nn(CC(=O)Nc3ccccc3F)c(=O)c3ccccc23)C1 (stereo not drawn)	1140 s
Cc1ccc(C)c(NC(=O)N2CCN(CCn3c(C(C)C)nc4cccnc43)CC2)c1	621 s
CCOC(=O)c1sc(NC(=O)C2CCC2)nc1-c1ccccc1	1010 s
CC(C)CN(CC(=O)N(Cc1ccco1)CC1CCCO1)C(=O)c1ccc(F)cc1 (stereo not drawn)	990 s
CCCN1C(=O)COc2cc(-c3noc(C(=O)NCCCc4ccccc4)n3)ccc21	1090 s
COc1ccc(-c2ncc3c(n2)CCN(S(=O)(=O)c2ccccc2C(F)(F)F)C3)cc1	1090 s
COc1ccc(C2C(C(=O)N3CCCC(C)C3)c3cc(OC)c(OC)cc3C(=O)N2C)cc1 (stereo not drawn)	817 s
Cn1ncc2c(N3CCSCC3)nc(C(=O)NCc3cccnc3)nc21	570 s
O=C(NCc1cccc(C(F)(F)F)c1)c1csc(C(=O)NC2CCCC2)n1	1000 s
O=C(c1nc2ccccc2s1)N1CCN(Cc2nc(-c3ccc(F)cc3)cs2)CC1	882 s

Structure (SMILES)	RP-LC retention time
CCOC(=O)C(C)Sc1ccc(NC(=O)c2ccco2)nn1 (stereo not drawn)	759 s
CCn1cnc(S(=O)(=O)N2CCC(C(=O)Nc3ccc(OC)cc3)CC2)c1	666 s
O=C(NC1CCCCC1)N1CCC(CCc2nc(C3CCOCC3)no2)CC1	709 s
CCOc1nc2c(c(C)nn2-c2ccccc2)c(C)c1CCC(=O)N1CCN(c2ccccn2)CC1	822 s
CN(C)C(=O)c1cc2c(s1)CCC(C(=O)NC1CCCCC1)C2 (stereo not drawn)	748 s
COCc1noc([C@@H]2CN(C(=O)CC3CCCC3)C[C@H]2CO)n1	670 s
CCOc1ccccc1NC(=O)Nc1ccc2nc(N3CCN(C)CC3)cc(C)c2c1	612 s
COc1ccc2cccc(NC(=O)c3ccc(F)c(F)c3)c2n1	1200 s
CCN1CCN(CCNC(=O)Cn2c(=O)c3cccn3c3ccc(F)cc32)CC1	589 s
COc1ccccc1C(=O)N1CCCC(COc2ccc(C(=O)NC(C)C)cc2)C1 (stereo not drawn)	830 s
CCOc1ccc(CNC(=O)c2c(C)sc3ccn(CC(C)C)c(=O)c23)cc1	1010 s
COc1ccccc1CNC(=O)C1CCCN1S(=O)(=O)c1cc2c(cc1C)NC(=O)C(C)O2 (stereo not drawn)	757 s
CCCC(=O)Nc1nc(-c2ccc3c(c2)N(C)C(=O)CO3)c(C)s1	856 s
O=C(NCc1ccc(Cl)cc1)C1CCc2nc(N3CCOCC3)ncc2C1 (stereo not drawn)	704 s
O=S(=O)(NCc1cccnc1-c1ccc(F)cc1)c1ccc(Br)cc1	801 s
COc1ccc(C2Cn3cnc(C(=O)N4CCC(C(=O)NC5CCCCCCC5)CC4)c3CO2)cc1 (stereo not drawn)	862 s
CN1C(=O)C(c2c(-c3ccc(Cl)cc3)[nH]c3[nH]c(=O)[nH]c(=O)c23)c2ccccc21 (stereo not drawn)	716 s
COc1ccccc1CNC(=O)Cn1nc2cc(-c3ccccc3)nc(C)n2c1=O	705 s
CC(C)CNS(=O)(=O)c1cccc2cnccc12	647 s
Cc1nc2ccccc2nc1SCC(=O)c1ccccc1	970 s
Cc1nnc(-c2cccnc2N2CCN(C(=O)c3ccsc3)CC2)o1	675 s
O=S(=O)(Nc1ccc(F)cc1)c1cccc(-c2nc(-c3ccccc3)no2)c1	1120 s

Structure (SMILES)	RP-LC retention time
COc1cc(Cl)c(NC(=O)C2CC(=O)N(c3cccc(NC(C)=O)c3)C2)c(OC)c1 (stereo not drawn)	711 s
O=C(c1ccsc1)N1CCN(c2ncnc3c2CCC3)CC1	557 s
COc1ccc(NC(=O)Cc2csc3nc(-c4cccc(Br)c4)cn23)cc1OC	882 s
C[C@H]1CN(C(=O)Nc2cccc(Cl)c2)C[C@@H]1c1nc(-c2cccnc2)no1	849 s
Cc1cccc(CNC(=O)CC2CCN(C(=O)c3[nH]c(C)c(C(=O)OC(C)C)c3C)CC2)c1	880 s
CC(C)OCCCNC(=O)Cn1cccc1-c1nc(-c2ccc(Cl)cc2)cs1	1100 s
CCOC(=O)c1c(C)oc2nc(C)nc(N3CCC(c4ccccc4)C3)c12 (stereo not drawn)	1130 s
CCC1CCCCN1C(=O)CSc1nc2c3cc(OC)ccc3n(C)c2c(=O)n1CC (stereo not drawn)	1070 s
Cc1ccc(Cn2c(=O)c(SCC(=O)NC3CC3)nc3ccccc32)cc1	893 s
CC1CCN(C(=O)c2ccc(OCC3CCCN(C(=O)C4CCCO4)C3)cc2)CC1 (stereo not drawn)	829 s
Cc1csc2nc(-c3cccc(NC(=O)c4ccccc4[N+](=O)[O-])c3)cn12	667 s
CCCN1C(=O)COc2ccc(-c3noc(-c4cccc(C)c4)n3)cc21	1320 s
Cc1noc(-c2nn(C)c3c2CN(C(=O)Nc2ccccc2C(F)(F)F)CC3)n1	709 s
COc1ncc(C(=O)Nc2cccc(Cl)c2)c(C)n1	812 s
Cn1cc(C2=CCN(S(=O)(=O)c3ccccc3)CC2)c2cccnc21	927 s
CCCC(=O)Nc1cc2c(cc1S(=O)(=O)c1ccccc1)n(CC)c(=O)n2CC	883 s
CCS(=O)(=O)N1CCCC(c2nc(C(C)C)no2)CCNC(=O)CC1 (stereo not drawn)	686 s
O=C(CSc1cc(N2CCN(c3ccccc3F)CC2)ncn1)Nc1ccccc1F	1190 s
CCc1nc(OCC(=O)Nc2ccc(Cl)c(Cl)c2)c2ccccc2n1	958 s
O=C(NC1CCN(Cc2ccccc2)CC1)C1CCCN(C(=O)c2cccc(Cl)c2)C1 (stereo not drawn)	650 s
Cc1oc(C2CCN(C(=O)COc3ccccc3)CC2)nc1C(=O)N1CCCCC1	796 s
Cc1ccc(OCC(=O)N(C)CC2(C)CCOCC2)cc1	799 s
